Results as given in patent US20250160328A1, “COMPOSITIONS AND METHODS FOR REDUCING PARASITIC INFESTATION OF HONEY BEE HIVES” (University of Georgia Research Foundation, Inc., priority 2022, published 2025).
Where “and” joins values, the source holds several entries; their conditions need not be identical. Equal entries are not always repeated.

What was measured:
adult carabid beetles = conditions: Larson et al., Pest Manag. Sci. 2012; cited from earlier work
bumblebee colony = conditions: in vivo; cited from earlier work
adult small hive beetles = experiment: SHB Adult Feed Toxicity and Reproduction Assay; type: in vivo, Aethina tumida
Protocol: In-feed testing with adult small hive beetles was done with small hive beetle adults taken from colonies in the field and individuals reared in-lab. Adults from the field and in-lab were given three days to acclimate together in a large container with feed (2 parts pollen supplement; 1 part pollen; 1/2 part honey) in an incubator at 30 C. Simultaneously, 50 mg of Chlorantraniliprole was suspended in 50 mL (1.25 g/mL) glycerol, which was then mixed into 100 g feed, resulting in a concentration of 0.3 mg Chlorantraniliprole per 1 gram feed. A concentration of 100 μg of active ingredient per 1 gram feed was then achieved via dilution with feed and glycerol solution. Using serial dilution, feeds with varying concentrations of active ingredient were mixed, producing feeds with 100 μg, 10 μg, 1 μg, 0 μg (control) active ingredient per 1 g feed. Following the acclimation period, approximately 10 adult small hive beetles (some pots contained more than 10 individuals, but no more than 12) were randomly assigned to 32 pots, with 8 pots randomly assigned to each treatment (100 μg, 10 μg, 1 μg, 0 μg Chlorantraniliprole). Mortality and reproduction were then monitored at 4, 6, 18 and 34 days.

honey bees [1] = conditions: cited from earlier work; for intoxication symptoms to honey bees: under certain test conditions, Minnesota Department of Agriculture website
small hive beetle adults = experiment: SHB Adult Exposure Toxicity Assay (contact); type: in vivo, Aethina tumida
Protocol: Testing on chlorantraniliprole contact effectiveness was also conducted on small hive beetle adults. Each plate in which small hive beetles were placed contained an approximately 1 in×1 in square of absorbent shop towel located in the middle of the pot, soaked with solution via pipette. Tests included a methanol-negative (1:1 sugar to water/w) control group with 6 plates of 8 individuals, a methanol-positive (1:1 sugar to water/w solution with methanol then added in to be 1/6 of volume) control group with 7 plates of 8 individuals, a 5 μg treatment group (same as methanol-positive control with 5 μg a.i. added) with 7 plates of 8 individuals, and a 10 μg group (same as methanol-positive control with 10 μg a.i. added) with 7 plates of 8 individuals. Numbers of live beetles were tallied at the end of the test period.

small hive beetle (SHB) = experiment: Field Assay: SHB infestation of pollen supplement patties in hives; type: in vivo, Aethina tumida; conditions: approximately 10 μg chlorantraniliprole per 1 g protein feed
Protocol: FIG. 2 is a bar graph of the experimental results from FIG. 1, showing the infestation rates of protein substitute mixed with concentrated solution of chlorantraniliprole, methanol, and glycerol according to trial instructions compared to untreated/control supplementary feed. Instructions achieved approximately 10 μg chlorantraniliprole per 1 g protein feed. Briefly, chlorantraniliprole was dissolved in methanol at a ratio of 1 mg chlorantraniliprole to 1 ml methanol via agitation/stirring. Chlorantraniliprole-methanol solution was cooled to −20° C. and then suspended/mixed into glycerol also cooled to −20° C. and stored between 4° C. and −20° C. to create a shelf-stable product. Product was then mixed into lethal attractant/supplementary feed at a rate of 50 ml formulated product per 1 kg feed or attractant via either mechanical or hand mixing at ambient temperature (200 ml of 80% glycerol/20% methanol was added to 4 kg of protein feed (i.e., 40 ml glycerol and 10 ml methanol per 1 kg protein feed). Treated attractant/feed mixture was then ready for deployment in the honey colony.
Pollen supplement was weighed out into two masses, each approximately 4 kg. To create the control pollen supplement patties, 200 ml of 80% glycerol, 20% methanol by volume solution was added to the pollen supplement mass. […]

honey bees [2] = experiment: Adult Honeybee Atoxicity Assays (mortality cages)
Protocol: In all instances, isocaloric sugar feed solutions were used (all honey bees were exposed to feed of equivalent sugar concentration). Both sets of experiments also tested the safety of methanol as a solvent for carrying the chlorantraniliprole. Mortality cages used approximately 20-50 bees per cage replicated across numerous colonies. Each cage was treated with one experimental dose of feed. Each colony donates a cage of bees to each dose in a full factorial experiment in line with tests used for EPA evaluation. Mortality was recorded at 24 hours and 48 hours.
Treatments included chlorantraniliprole concentrations of: 0 (w/methanol), 0 (w/o methanol), 0 (positive dimethoate control), 5, 15, 65, 250 μg/mL.

[3] = 10 μg/g chlorantraniliprole in feed
[4] = 100 μg/g chlorantraniliprole in feed

SMILES	in-field toxicity to adult carabid beetles (adult carabid beetles)	effects on bumblebee colony growth or mortality (bumblebee colony)	SHB larvae observed (reproduction) (adult small hive beetles; 1 μg/g chlorantraniliprole in feed)	SHB larvae observed (reproduction) (adult small hive beetles; [3])	mortality of adult small hive beetles (adult small hive beetles; [3])	SHB larvae observed (reproduction) (adult small hive beetles; [4])	time of exposure by which all adult small hive beetles were dead (adult small hive beetles; [4]) [days]	LD50 to Apis mellifera (EPA 2008) (honey bees [1]; EPA registration documentation as a lawn-treatment) [mg/bee]	oral toxicity (LD50) for bees, EPA Data (honey bees [1]; oral)	intoxication symptoms to honey bees (honey bees [1])	fold less toxic than clothianidin to Apis mellifera (honey bees [1]; versus a comparable neonicotinoid, clothianidin)	mortality of adult small hive beetles via contact exposure (small hive beetle adults; 5 μg and 10 μg a.i. on soaked shop towel in sugar water/methanol)	survival of adult small hive beetles (small hive beetle adults; 5 μg and 10 μg a.i., contact exposure, end of test period)	SHB infestation of patties in the five day field trial period (small hive beetle (SHB); 5 days in hives)	SHB infestation of supplementary food after two weeks of incubation to hatch eggs (small hive beetle (SHB); 5 days in hives then 14 days at 30 C)	sublethal effect observed in honeybees (honey bees [2]; 250 μg/mL, the very highest dose)	adult bee mortality at effective control concentrations (honey bees [2]; USDA-standard laboratory trials, FIG. 4)	honey bee mortality in relation to dose (honey bees [2]; set one 1.25-10 μg/mL, set two 5-250 μg/mL in sugar feed, 24 hours and 48 hours)	toxicity of the solvent to honey bees (honey bees [2]; methanol in sugar feed (30% by volume in set one) versus no methanol)
CNC(=O)c1cc(Cl)cc(C)c1NC(=O)c1cc(Br)nn1-c1ncccc1Cl [chlorantraniliprole]	no evidence of apparent in-field toxicity	no detectable negative effects	few larvae were observed but subsequently died while still in their first or second instars	No evidence of any larvael SHB	Elevated mortality	No evidence of any larvael SHB	≤ 6	> 0.1	exceeds 100 μg a.i. per bee	little or no intoxication symptoms	more than 2000 ×	no evidence of elevated mortality	all adult small hive beetles survived the experiment	remained free of SHB infestation	remained SHB-infestation free and 10/10	Sublethal lethargy	no adult bee mortality	no significant increase in honey bee mortality	
Cc1cc(C(F)(C(F)(F)F)C(F)(F)F)ccc1NC(=O)c1cccc(I)c1C(=O)NC(C)(C)CS(C)(=O)=O [flubendiamide]										little or no intoxication symptoms									
CO [methanol]																			No evidence of any toxicity
